Assay results: ChEMBL document CHEMBL5303304, “EUbOPEN Chemogenomics Library - IncuCyte” (2023)

Assays:
Assay type in all cases: toxicity, cell-based
Fibroblast = experiment: Incucyte cell viability with human fibroblast; conditions: 10 µM, compound concentration 10 uM
HEK-293T = experiment: Incucyte cell viability with HEK293T; conditions: human, 10 µM, compound concentration 10 uM
U2OS = experiment: Incucyte cell viability with U2OS; conditions: human, 10 µM, compound concentration 10 uM
Further: unitless GR value; below 1 slowed growth and below 0 cell loss.

Row | Structure (SMILES) | Growth Rate (Fibroblast; 0 h, replicate number 1) | Growth Rate (Fibroblast; 12 h, replicate number 1) | Growth Rate (Fibroblast; 12 h, replicate number 2) | Growth Rate (Fibroblast; 18 h, replicate number 1) | Growth Rate (Fibroblast; 18 h, replicate number 2) | Growth Rate (Fibroblast; 24 h, replicate number 1) | Growth Rate (Fibroblast; 24 h, replicate number 2) | Growth Rate (HEK-293T; 6 h, replicate number 1) | Growth Rate (HEK-293T; 6 h, replicate number 2) | Growth Rate (HEK-293T; 12 h, replicate number 1) | Growth Rate (HEK-293T; 12 h, replicate number 2) | Growth Rate (HEK-293T; 18 h, replicate number 1) | Growth Rate (HEK-293T; 18 h, replicate number 2) | Growth Rate (HEK-293T; 24 h, replicate number 1) | Growth Rate (HEK-293T; 24 h, replicate number 2) | Growth Rate (U2OS; 6 h, replicate number 1) | Growth Rate (U2OS; 12 h, replicate number 1) | Growth Rate (U2OS; 12 h, replicate number 2) | Growth Rate (U2OS; 18 h, replicate number 2) | Growth Rate (U2OS; 24 h, replicate number 2) | also measured
1 | Cc1cc(Cn2c(N3CC4(CNC4)C3)nc3c(N4CCN(C)CC4)cc(Cl)cc32)cc(C)c1F | -1 | -0.99 | -1 | -0.95 | -0.98 | -0.88 | -0.93 | -0.99 | -1 | -0.88 | -0.92 | -0.67 | -0.74 | -0.51 | -0.56 | -0.98 | -0.97 | -0.92 | -0.84 | -0.77 | Growth Rate (Fibroblast; 6 h, replicate number 2): -1; Growth Rate (U2OS; 0 h, replicate number 1): -1; Growth Rate (U2OS; 6 h, replicate number 2): -0.99; Growth Rate (U2OS; 18 h, replicate number 1): -0.92; Growth Rate (U2OS; 24 h, replicate number 1): -0.79
2 | Cc1cc(-c2cc3ncccc3c(OC[C@H]3CCCNC3)n2)ccc1N(C)C.O=C(O)C(F)(F)F | -0.49 |  |  |  |  | 0.79 | 0.85 | -0.57 | -0.53 | -0.47 | -0.44 | -0.34 | -0.28 | -0.25 | -0.18 |  | 0.77 | 0.26 | 0.19 | 0.16 | Growth Rate (Fibroblast; 0 h, replicate number 2): -0.85; Growth Rate (HEK-293T; 0 h, replicate number 2): -1; Growth Rate (U2OS; 6 h, replicate number 2): 0.47; Growth Rate (U2OS; 18 h, replicate number 1): 0.28; Growth Rate (U2OS; 24 h, replicate number 1): 0.47
3 | N#Cc1ccc(C#CC[C@@H](C#N)NC(=O)[C@@H]2CCCCN2)cc1F | -1 | 0.89 | 1 | 0.73 | 0.9 | 0.74 |  |  | 0.76 |  | 0.89 |  |  |  |  | 0.57 | 0.92 | 0.73 | 0.85 | 0.86 | Growth Rate (Fibroblast; 0 h, replicate number 2): -0.9; Growth Rate (Fibroblast; 6 h, replicate number 1): 0.62; Growth Rate (HEK-293T; 0 h, replicate number 1): 0.68; Growth Rate (U2OS; 0 h, replicate number 1): 0.67; Growth Rate (U2OS; 0 h, replicate number 2): 0.31
4 | CCN(CC)CCO[C@H]1CC[C@@]2(C)C(=CC[C@@H]3[C@@H]2CC[C@]2(C)C(=O)CC[C@@H]32)C1.Cl |  | -0.34 | -0.05 | -0.18 | -0.06 | -0.25 | -0.11 | 0.35 | 0.24 | 0.32 | 0.31 | 0.45 | 0.42 | 0.53 | 0.52 | 0.77 |  |  |  |  | Growth Rate (Fibroblast; 6 h, replicate number 1): 0.34; Growth Rate (U2OS; 0 h, replicate number 1): 0.56; Growth Rate (U2OS; 24 h, replicate number 1): 0.91
5 | CC(C1CC2CCC1C2)n1c(S)nnc1-c1ccco1 (stereo not drawn) |  | -1 |  | -0.08 |  |  |  | 0.59 | 0.46 | 0.81 | 0.63 | 0.69 | 0.74 | 0.75 | 0.81 | 0.78 | 0.97 | 0.67 | 0.78 | 0.89 | Growth Rate (HEK-293T; 0 h, replicate number 2): 0.53; Growth Rate (U2OS; 6 h, replicate number 2): 0.22
